“Also recorded” adds a separate entry of the source. Like-named read-outs stand apart in the source and are kept apart here.
Experiments:
[1] = target: T1, S. pneumoniae neuraminidase (NanA) (Streptococcus pneumoniae, UniProt P62575); experiment: Neuraminidase assay with fluorogenic substrate MNN, NanA; format: biochemical
T1 construct: residues 116-1035 of S. pneumoniae D39 sialidase A precursor (NanA); made in house; host or cells: E. coli BL21(DE3), pET28a
Procedure: (§1) Neuraminidase assay. Neuraminidase activity of NanA was detected using the fluorogenic substrate 2′-(4-methylumbelliferyl)-α-D-N-acetylneuraminic acid (MNN, Sigma). Reactions contained 1.5 mM MNN, 1 nM of NanA in 2.5 mM sodium phosphate buffer (pH 5). Reactions were allowed to incubate for 2 h at 37° C. before fluorescence intensity was measured at excitation and emission wavelengths of 360 nm and 465 nm in a Tecan microplate reader (Männedorf, Switzerland). NanPs was assayed as above with 1 mM of enzyme in 7.5 mM sodium chloride and 4 mM calcium chloride. Compounds were screened at a concentration of 100 μM before dose-dependence was established. Compounds were obtained from a variety of sources (Otava, Kyiv, Ukraine; Interbioscreen, Moscow, Russia; Chembridge San Diego, USA; Maybridge, Cornwell, UK; Sigma, St Louis, USA; Princeton, Princeton, USA; Lifechem, Burlington, Canada; Enamine, Kiev, Ukraine). Neuraminidase assays with oseltamivir were performed using the hydrolyzed version of the compound. Divalent cations were supplied in the form of calcium, magnesium, ferric and copper chloride. All neuraminidase assays were performed at least in triplicate.
as §1, with “assay. NanA was purified as previously described (B19).” for “assay.”, “Switzerland).” for “Switzerland). NanPs was assayed as above with 1 mM of enzyme in 7.5 mM sodium chloride and 4 mM calcium chloride. Compounds were screened at a concentration of 100 μM before dose-dependence was established.”, “Kiev,” for “Kyiv,”, “compound. Briefly, a mixture of oseltamivir (300 mg) in methanol (10 ml) was added to 5N NaOH (3 ml). The mixture was stirred overnight and evaporated under reduced pressure. The residue was dissolved in 10 ml H2O and the washed with 5 ml of ethyl acetate. The aqueous solution was acidified with 5N HCl to pH=2-3. Evaporation of water under reduced pressure gave the hydrolyzed product. […]” for “compound.”

[2] = target: T2, P. aeruginosa neuraminidase (NanPs) (Pseudomonas aeruginosa, UniProt G3XCV3); details: read-out: concentration for 50% inhibition of the P. aeruginosa neuraminidase; from reference A37; cited from earlier work
[3] = system: S. pneumoniae wild-type D39 biofilm; experiment: Biofilm formation after epithelial cell interaction (crystal violet microtitre assay); format: cell-based, Streptococcus pneumoniae
Procedure: (§2) Biofilm assay. Bacterial strains were grown to mid-log phase before being diluted 1:100 in TS broth and catalase. 100 μl of diluted culture was added in triplicate to 96-well flat bottom tissue culture treated plates (Falcon) and left for 18-24 h at 37° C. with 5% CO2. Plates were read at 600 nm to determine levels of growth before being washed in water. Adherent biofilm-forming cells were then stained with 125 μL of 1% crystal violet for 15 min before two further washes in water and allowed to dry. Bound crystal violet was then suspended in 200 μL of ethanol, shaken for 15 min and read at 540 nm.
(§3) Biofilm formation after epithelial cell interaction. Bacterial strains were grown and inoculated onto 1HAEo^− cells as per adherence assay. After the initial PBS washes fresh MEM media was applied before a further 1 h incubation. This removal and addition of fresh media was repeated a further four times before detachment of adherent bacteria using TrypLE Express (Gibco). The detached bacteria were then diluted 1:100 in TS broth and catalase and assayed as per the biofilm assay. Samples were repeated four times, each time in sextuplicate using epithelial cells without bacteria as a negative control.
as §3, with “control. […] Fluorescence microscopy was performed using a Zeiss Observer Z1 inverted fluorescence microscope with ApoTome (Zeiss) for optical sectioning and AxioVision software (v 4.6.2.0, Zeiss). […]” for “control.”

[4] = system: S. pneumoniae planktonic cells; experiment: Growth of planktonic cells (600 nm reading in biofilm assay); format: cell-based, Streptococcus pneumoniae
Procedure: as §2
as §3, with “control. […] Fluorescence microscopy was performed using a Zeiss Observer Z1 inverted fluorescence microscope with ApoTome (Zeiss) for optical sectioning and AxioVision software (v 4.6.2.0, Zeiss). […]” for “control.”

[5] = target: T2, P. aeruginosa neuraminidase (NanPs); experiment: Neuraminidase assay with fluorogenic substrate MNN, NanPs; format: biochemical
Procedure: as §1

T1 sequence (P62575 116-1035): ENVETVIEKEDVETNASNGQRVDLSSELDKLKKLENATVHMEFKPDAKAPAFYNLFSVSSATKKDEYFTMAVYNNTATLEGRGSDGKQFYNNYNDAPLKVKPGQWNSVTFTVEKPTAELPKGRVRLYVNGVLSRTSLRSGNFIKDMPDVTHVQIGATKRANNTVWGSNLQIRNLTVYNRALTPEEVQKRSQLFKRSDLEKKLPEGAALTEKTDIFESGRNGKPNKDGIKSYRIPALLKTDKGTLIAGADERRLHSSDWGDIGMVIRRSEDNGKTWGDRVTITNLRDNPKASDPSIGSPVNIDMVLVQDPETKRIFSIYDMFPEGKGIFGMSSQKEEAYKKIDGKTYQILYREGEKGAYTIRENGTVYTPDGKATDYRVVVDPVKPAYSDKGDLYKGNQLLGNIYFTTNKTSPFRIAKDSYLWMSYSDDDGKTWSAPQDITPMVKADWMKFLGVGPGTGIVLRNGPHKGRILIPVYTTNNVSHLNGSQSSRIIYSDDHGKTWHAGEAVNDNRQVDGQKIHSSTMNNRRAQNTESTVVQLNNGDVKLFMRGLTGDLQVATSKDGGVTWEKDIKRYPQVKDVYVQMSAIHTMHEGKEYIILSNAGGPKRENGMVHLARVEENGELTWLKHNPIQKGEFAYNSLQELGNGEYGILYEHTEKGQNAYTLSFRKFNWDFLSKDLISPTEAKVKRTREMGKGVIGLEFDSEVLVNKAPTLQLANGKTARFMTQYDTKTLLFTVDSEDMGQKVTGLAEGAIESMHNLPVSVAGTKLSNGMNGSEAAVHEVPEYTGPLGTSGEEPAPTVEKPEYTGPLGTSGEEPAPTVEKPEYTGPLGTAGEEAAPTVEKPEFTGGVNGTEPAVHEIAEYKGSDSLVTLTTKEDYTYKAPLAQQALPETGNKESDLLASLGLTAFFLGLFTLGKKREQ
T2 sequence (G3XCV3 entry or part of it): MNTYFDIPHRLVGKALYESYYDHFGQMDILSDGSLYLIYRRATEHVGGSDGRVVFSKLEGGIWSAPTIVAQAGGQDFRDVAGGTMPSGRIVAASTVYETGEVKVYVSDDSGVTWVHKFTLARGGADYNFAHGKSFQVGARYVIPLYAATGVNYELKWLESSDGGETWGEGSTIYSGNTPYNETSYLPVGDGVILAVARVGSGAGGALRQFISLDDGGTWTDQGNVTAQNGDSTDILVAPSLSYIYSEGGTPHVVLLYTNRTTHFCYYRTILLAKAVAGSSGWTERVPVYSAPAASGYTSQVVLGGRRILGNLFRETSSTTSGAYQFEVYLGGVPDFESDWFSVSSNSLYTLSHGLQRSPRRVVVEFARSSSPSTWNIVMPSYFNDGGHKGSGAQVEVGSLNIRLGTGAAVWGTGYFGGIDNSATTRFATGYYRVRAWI

## [Ca] [calcium]
[1]; 1 mM calcium
  increase in NanA activity: 70%

## CC(=O)N[C@H]1[C@H]([C@H](O)[C@H](O)CO)OC(C(=O)O)=C[C@@H]1O [DANA, 2,3-dehydro-2-deoxy-N-acetylneuraminic acid]
[2]
  IC50: ~10000 µM

## CC(=O)N[C@H]1[C@H]([C@H](O)[C@H](O)CO)OC(O)(C(=O)O)C[C@@H]1O (stereo partly drawn) [NANA, N-acetylneuraminic acid, reference compound]
[3]; 0.2% w/v NANA
  biofilm formation of the wild-type (D39) strain: decreased biofilm formation; also recorded: reduced biofilm formation
[1]
  IC50: 600 µM
[2]
  IC50: ~10000 µM

## [Mg] [magnesium]
[1]; presence of magnesium ions
  increase in NanA activity: 50%

## CC(=O)N[C@@H]1[C@@H](O)C[C@](Oc2ccc3c(C)cc(=O)oc3c2)(C(=O)O)O[C@H]1C(O)[C@H](O)CO (stereo partly drawn) [MNN, 2′-(4-methylumbelliferyl)-α-D-N-acetylneuraminic acid, reference compound]
[1]
  Km: ~1400 µM

## COc1ccc([C@H]2[C@H](C(=O)c3ccc(Cl)cc3)C(=O)C(=O)N2c2cccc(C(=O)O)c2)cc1 [XX1]
[4]
  growth of planktonic cells: did not affect growth
[3]; 100 μM, inhibitor present during epithelial cell exposure and in microtitre trays
  biofilm formation: significant reduction in biofilm formation
[3]; 400 μM, inhibitor present during epithelial cell exposure and in microtitre trays
  levels of biofilm formation: comparative to the nanA strain
[5]
  IC50: 29 µM
[1]; Example 1
  inhibition of NanA, times more effective than DANA: greater than 20 times
  inhibition of NanA, times more effective than NANA: > 80 times
  inhibition of NanA, times more effective than oseltamivir: > 200 times
[1]; Example 3
  inhibition of NanA, times more effective than DANA: greater than 7 times
  inhibition of NanA, times more effective than NANA: > 20 times
  inhibition of NanA, times more effective than oseltamivir: > 70 times
[1]; IC50 against NanA, Example 3, dose response fitted with logarithmic-based trend line
  IC50: 28 µM
[1]; IC50 for the S. pneumoniae neuraminidase, Example 1, dose response fitted with power-based trend line
  IC50: 8.5 µM

## CCOC(=O)C1=C[C@@H](OC(CC)CC)[C@H](NC(C)=O)[C@@H](N)C1 [Oseltamivir, oseltamivir, reference compound]
[5]
  IC50: ~600 µM
[1]; IC50 against NanA, hydrolyzed version of oseltamivir
  IC50: 2000 µM

— patent publication US20110280813A1, “NEURAMINIDASE INHIBITORS AND USES THEREOF” (priority 2008, published 2011)
